Laboratory results published in patent EP4545091A1 (priority 2023, dated 2025).
Bridges are numbered along the chain shown (N, C = ends).

Key:
[1] = system: SARS-CoV-2 Omicron BA.1 variant; conditions: 48 h
Omicron XBB.1.5 spike = format: cell-based, SARS-CoV-2

## VAACNLPIVRGPCRAFIQLWAFDAVKGKCVLFPYGGCQGNGNKFYSEKECREYCGVPGDGD (disulfide 4-54, 13-37, 29-50) [Trypstatin]
[1]
  IC50: 120 nM
Omicron XBB.1.5 spike
  activity against Omicron XBB.1.5 variant in a pseudoparticle assay: verified activity
